Measured values as given in article PMC6349357, “Computational and experimental analysis of bioactive peptide linear motifs in the integrin adhesome” (PLoS ONE, 2019).

Columns and labels:
TRAP-activated platelets = assay: Inhibition of TRAP-induced platelet aggregation after pre-incubation with peptide; assay type: cell-based, human (healthy volunteers); details: for Platelet aggregation remaining after TRAP (low = inhibition): platelet aggregation induced by 4 μM TRAP in platelets pre-incubated with peptide (low value = inhibition), pal-peptides 20 μM, tat-peptides 50 μM, mean, n>=3; for Aggregation after TRAP activation, donor h: replicate donor h; for Aggregation after TRAP activation, donor h / Aggregation after TRAP activation, donor i / Aggregation after TRAP activation, donor j: TRAP 4 μM, pal 20 μM, tat 50 μM; for Aggregation after TRAP activation, donor i: replicate donor i; for Aggregation after TRAP activation, donor j: replicate donor j
Description: (§1) Blood was drawn from healthy volunteers into a syringe containing a final volume of 15% Acid Citrate Dextrose (ACD). The blood/ACD mixture was then aliquoted into 15 ml Cellstar tubes, at volumes of 5ml per tube, and centrifuged at 150 rcf for 10 minutes to obtain platelet rich plasma (PRP). PRP was then transferred to a 50ml tube using a pipette. The pH was then adjusted to 6.5. Prostaglandin (PGE1) was then added with a final concentration of 1μM. The PRP was then centrifuged at 750 rcf. After centrifugation the platelet poor plasma (PPP) was discarded and the pellet was resuspended in buffer A (6 mM dextrose, 130 mM NaCl, 9 mM NaHCO3, 10 mM sodium citrate, 10 mM Tris base, 3 mM KCl, 0.81 mM KH2PO4 and 0.9 mM MgCl26H2O, pH 7.4). A platelet concentration of 3x10^5/μl or 1x10^6/μl was obtained by dilution depending on the experiment in which they were used. Platelets were left to rest for 45 minutes and supplemented with 1.8mM calcium chloride prior to use.
(§2) A platelet concentration of 3x10^5 /μl was used when performing standard aggregations and a concentration of 1x10^6 /μl was used for sample preparation for western blot analysis. The extent of platelet aggregation was measured by quantifying the optical density of the samples using the Bio-Data PAP-8 aggregometer (platelet aggregation profiler, Horsham, PA, USA). A temperature of 37°C was maintained and samples were stirred using magnets spinning at 1100 rpm. 200 μl of washed platelets was added to each aggregation tube. Different volumes of buffer, peptide and TRAP were added to achieve the desired concentrations. Peptide/buffer was added to each well after two minutes. TRAP, with a final concentration depending on the experiment, was added 6 minutes later and data was collected for an additional 7 minutes.

resting platelets = assay: Platelet aggregation induced by peptide in resting washed platelets (activation); assay type: cell-based, human (healthy volunteers); details: for Activation: platelet aggregation in resting platelets after 6 minutes incubation with peptide, pal-peptides 20 μM, tat-peptides 50 μM, optical density, aggregometer, mean, n>=3, unit assumed; for Aggregation before TRAP activation, donor h: replicate donor h; for Aggregation before TRAP activation, donor h / Aggregation before TRAP activation, donor i / Aggregation before TRAP activation, donor j: pal 20 μM, tat 50 μM; for Aggregation before TRAP activation, donor i: replicate donor i; for Aggregation before TRAP activation, donor j: replicate donor j
Description: as §1, §2

Row | Substance | Platelet aggregation remaining after TRAP (low = inhibition) (TRAP-activated platelets) | Aggregation after TRAP activation, donor h (TRAP-activated platelets) | Aggregation after TRAP activation, donor i (TRAP-activated platelets) | Aggregation after TRAP activation, donor j (TRAP-activated platelets) | Activation (resting platelets) | Aggregation before TRAP activation, donor h (resting platelets) | Aggregation before TRAP activation, donor i (resting platelets) | Aggregation before TRAP activation, donor j (resting platelets)
1 | tat-EGERALPSIPKLAN-(NH2) [tat-FAK_1, tat peptide from PTK2/FAK1] | 72 | 76 | 66 | 74 | 4% | 4 | 4 | 4
2 | tat-EPDFPPPPPDLE-(NH2) [tat-VCL, tat peptide from VCL] | 70 | 68 | 67 | 77 | 4% | 4 | 4 | 4
3 | tat-GRDKYKTLRQIRQGNTKQRIDEFESM [tat-MSN, tat peptide from MSN] | 73 | 76 | 68 | 75 | 3% | 3 | 3 | 4
4 | tat-KRAPQMDWSKKNELFSNL [tat-NHERF1, tat peptide from NHERF1] | 70 | 71 | 66 | 75 | 3% | 4 | 3 | 3
5 | tat-SKPIGPDDAIDALSSDFTS-(NH2) [tat-CAST_2, tat peptide from calpastatin (CAST)] | 74 | 78 | 69 | 76 | 3% | 3 | 4 | 4
6 | tat-SVSETDDpYAEIIDE-(NH2) [tat-FAK_2, tat peptide from PTK2/FAK1, phosphorylated tyrosine] | 71 | 77 | 61 | 76 | 3% | 4 | 3 | 4
